Measurements reported in patent US20150038438A1, “ANTIBACTERIAL COMPOUNDS AND METHODS FOR USE” (PTC THERAPEUTICS, INC., priority 2011, published 2015).
Converted amounts (≈) assume the structure as drawn. Where a name gives a salt, the structure may show the parent alone.

Tests used:
Assay in all cases: Antibacterial activity, microbroth dilution method (MIC)
[1] = tested on: control Gram-negative E. coli 25922 strain; assay type: cell-based, Escherichia coli; settings: Escherichia coli
Outline: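 Broth microdilution against S. aureus 29213, E. coli 25922 and hypersensitive E. coli BAS849. MIC in μg/mL is the lowest drug concentration preventing macroscopically visible growth under test conditions.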

[2] = tested on: super sensitive Gram-negative Escherichia coli (E. coli) BAS849; assay type: cell-based; settings: Escherichia coli; super sensitive Gram-negative E. coli BAS849; microbroth dilution; read-out: MIC, E. coli BAS849
Outline: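 Potency is reported as minimum inhibitory concentration in μg/mL, determined by broth microdilution as the lowest level of compound that stops growth visible to the eye.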

[3] = tested on: Gram-positive Staphylococcus aureus (S. aureus) 29213; assay type: cell-based; settings: Staphylococcus aureus, Gram-positive S. aureus 29213
Outline: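 Read-out: visual absence of growth. The lowest concentration meeting this gives the MIC, expressed in μg/mL, with microbroth dilution as the method.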

| SMILES | MIC [1] [µg/mL] | MIC [2] [µg/mL] | MIC [3] [µg/mL] |
| --- | --- | --- | --- |
| Cl.Cn1c(CNC(C)(C)C)cc2cc3c(cc21)OCCc1c-3[nH]c(=O)c(C(=O)O)c1O [Cpd 175, 10-((tert-butylamino)methyl)-4-hydroxy-9-methyl-2-oxo-2,5,6,9-tetrahydro-1H-pyrido[2′,3′:4,5]oxepino[3,2-f]indole-3-carboxylic acid hydrochloride] | < 1 | < 1 | 3.5 to 12.5 |
| Cl.Cn1c(CN2CCOCC2)cc2cc3c(cc21)CCCc1c-3[nH]c(=O)c(C(=O)O)c1O [Cpd 41, 4-hydroxy-9-methyl-10-(morpholinomethyl)-2-oxo-1,2,5,6,7,9-hexahydropyrido[3′,2′:6,7]cyclohepta[1,2-f]indole-3-carboxylic acid hydrochloride] | 3.5 to 12.5 | < 1 | 1 to 3.5 |
| CC1CCc2cc(N3CCC(N(C)C)C3)ccc2-c2[nH]c(=O)c(C(=O)O)c(O)c21.Cl (stereo not drawn) [Cpd 12, 9-(3-(dimethylamino)pyrrolidin-1-yl)-4-hydroxy-5-methyl-2-oxo-2,5,6,7-tetrahydro-1H-benzo[6,7]cyclohepta[1,2-b]pyridine-3-carboxylic acid hydrochloride] | 12.5 to 150 | 1 to 3.5 | 12.5 to 150 |
| CCNCc1cc2cc3c(cc2n1C)C=CCc1c-3[nH]c(=O)c(C(=O)O)c1O.Cl [Cpd 69, 10-((ethylamino)methyl)-4-hydroxy-9-methyl-2-oxo-1,2,5,9-tetrahydropyrido[3′,2′:6,7]cyclohepta[1,2-f]indole-3-carboxylic acid hydrochloride] | < 1 | < 1 | 12.5 to 150 |
| CN1CCC2(CCN(c3ccc4c(c3)CCCc3c-4[nH]c(=O)c(C(=O)O)c3O)C2)C1.Cl (stereo not drawn) [Cpd 123, 4-hydroxy-9-(7-methyl-2,7-diazaspiro[4.4]nonan-2-yl)-2-oxo-2,5,6,7-tetrahydro-1H-benzo[6,7]cyclohepta[1,2-b]pyridine-3-carboxylic acid hydrochloride] | 3.5 to 12.5 | < 1 | 12.5 to 150 |
| CCCNCc1cc2cc3c(cc2n1C)CCCc1c-3[nH]c(=O)c(C(=O)O)c1O.Cl [Cpd 44, 4-hydroxy-9-methyl-2-oxo-10-((propylamino)methyl)-1,2,5,6,7,9-hexahydropyrido[3′,2′:6,7]cyclohepta[1,2-f]indole-3-carboxylic acid hydrochloride] | < 1 | < 1 | 3.5 to 12.5 |
| Cl.Cl.Cn1c(CN2CC[C@H](N)C2)cc2cc3c(cc21)CCCc1c-3[nH]c(=O)c(C(=O)O)c1O [Cpd 49, (S)-10-((3-aminopyrrolidin-1-yl)methyl)-4-hydroxy-9-methyl-2-oxo-1,2,5,6,7,9-hexahydropyrido[3′,2′:6,7]cyclohepta[1,2-f]indole-3-carboxylic acid dihydrochloride] | 3.5 to 12.5 | 1 to 3.5 | 12.5 to 150 |
| CNCc1cc2cc3c(cc2n1C)CCCc1cc(C(=O)O)c(=O)[nH]c1-3.Cl [Cpd 53, 9-methyl-10-((methylamino)methyl)-2-oxo-1,2,5,6,7,9-hexahydropyrido[3′,2′:6,7]cyclohepta[1,2-f]indole-3-carboxylic acid hydrochloride] | 1 to 3.5 | < 1 | 12.5 to 150 |
| CC1COc2cc(N3CCC(N(C)C)C3)ccc2-c2[nH]c(=O)c(C(=O)O)c(O)c21.Cl (stereo not drawn) [Cpd 84, 9-(3-(dimethylamino)pyrrolidin-1-yl)-4-hydroxy-5-methyl-2-oxo-1,2,5,6-tetrahydrobenzo[2,3]oxepino[4,5-b]pyridine-3-carboxylic acid hydrochloride] | 12.5 to 150 | 1 to 3.5 | 12.5 to 150 |
| O=C(O)c1cc2c([nH]c1=O)-c1ccc(N3CCCC3)cc1OCC2 [Cpd 81, 2-oxo-9-(pyrrolidin-1-yl)-1,2,5,6-tetrahydrobenzo[2,3]oxepino[4,5-b]pyridine-3-carboxylic acid] | 12.5 to 150 (≈ 38.3 to 460 µM) | < 1 | 12.5 to 150 (≈ 38.3 to 460 µM) |
| CN(C)c1ccc2c(c1)SCCc1c-2[nH]c(=O)c(C(=O)O)c1O [Cpd 185, 9-(dimethylamino)-4-hydroxy-2-oxo-1,2,5,6-tetrahydrobenzo[2,3]thiepino[4,5-b]pyridine-3-carboxylic acid] | 12.5 to 150 (≈ 37.6 to 451 µM) | < 1 | 12.5 to 150 (≈ 37.6 to 451 µM) |
| CCNCc1cc2cc3c(cc2n1C)CCC(C)c1c-3[nH]c(=O)c(C(=O)O)c1O.Cl (stereo not drawn) [Cpd 67, 10-((ethylamino)methyl)-4-hydroxy-5,9-dimethyl-2-oxo-1,2,5,6,7,9-hexahydropyrido[3′,2′:6,7]cyclohepta[1,2-f]indole-3-carboxylic acid hydrochloride] | 1 to 3.5 | < 1 | 12.5 to 150 |
| CN1CCN(c2ccc3c(c2)CCCc2c-3[nH]c(=O)c(C(=O)O)c2O)CC1.Cl [Cpd 120, 4-hydroxy-9-(4-methylpiperazin-1-yl)-2-oxo-2,5,6,7-tetrahydro-1H-benzo[6,7]cyclohepta[1,2-b]pyridine-3-carboxylic acid hydrochloride] | 12.5 to 150 | 1 to 3.5 | 12.5 to 150 |
| COCCNCc1cc2cc3c(cc2n1C)OCCc1c-3[nH]c(=O)c(C(=O)O)c1O.Cl [Cpd 183, 4-hydroxy-10-(((2-methoxyethyl)amino)methyl)-9-methyl-2-oxo-2,5,6,9-tetrahydro-1H-pyrido[2′,3′:4,5]oxepino[3,2-f]indole-3-carboxylic acid hydrochloride] | 1 to 3.5 | < 1 | 12.5 to 150 |
| CN(C)c1ccc2c(c1)CCCCc1cc(C(=O)O)c(=O)[nH]c1-2 [Cpd 4, 10-(dimethylamino)-2-oxo-1,2,5,6,7,8-hexahydrobenzo[7,8]cycloocta[1,2-b]pyridine-3-carboxylic acid] | 12.5 to 150 (≈ 40 to 480 µM) | < 1 | 12.5 to 150 (≈ 40 to 480 µM) |
| Cl.Cn1c(CNCC2CCC2)cc2cc3c(cc21)CCCc1c-3[nH]c(=O)c(C(=O)O)c1O [Cpd 37, 10-(((cyclobutylmethyl)amino)methyl)-4-hydroxy-9-methyl-2-oxo-1,2,5,6,7,9-hexahydropyrido[3′,2′:6,7]cyclohepta[1,2-f]indole-3-carboxylic acid hydrochloride] | 1 to 3.5 | < 1 | 3.5 to 12.5 |
| Cl.Cn1c(CN2CCC2)cc2cc3c(cc21)CCCc1c-3[nH]c(=O)c(C(=O)O)c1O [Cpd 24, 10-(azetidin-1-ylmethyl)-4-hydroxy-9-methyl-2-oxo-1,2,5,6,7,9-hexahydropyrido[3′,2′:6,7]cyclohepta[1,2-f]indole-3-carboxylic acid hydrochloride] | < 1 | < 1 | 3.5 to 12.5 |
| CN1CCN(Cc2cc3cc4c(cc3n2C)OCCc2c-4[nH]c(=O)c(C(=O)O)c2O)CC1.Cl.Cl [Cpd 176, 4-hydroxy-9-methyl-10-((4-methylpiperazin-1-yl)methyl)-2-oxo-2,5,6,9-tetrahydro-1H-pyrido[2′,3′:4,5]oxepino[3,2-f]indole-3-carboxylic acid dihydrochloride] | 3.5 to 12.5 | < 1 | 12.5 to 150 |
| Cl.O=C(O)c1c(O)c2c([nH]c1=O)-c1ccc(N3C[C@H]4CCCN[C@H]4C3)cc1CCC2 [Cpd 114, 9-((4aR,7aR)-hexahydro-1H-pyrrolo[3,4-b]pyridin-6(2H)-yl)-4-hydroxy-2-oxo-2,5,6,7-tetrahydro-1H-benzo[6,7]cyclohepta[1,2-b]pyridine-3-carboxylic acid hydrochloride] | 3.5 to 12.5 | 1 to 3.5 | 12.5 to 150 |
| CN(C)c1ccc2c(c1)CCCc1c-2[nH]c(=O)c(C(=O)O)c1O [Cpd 3, 9-(dimethylamino)-4-hydroxy-2-oxo-2,5,6,7-tetrahydro-1H-benzo[6,7]cyclohepta[1,2-b]pyridine-3-carboxylic acid] | 3.5 to 12.5 (≈ 11.1 to 39.8 µM) | < 1 | 3.5 to 12.5 (≈ 11.1 to 39.8 µM) |
| CC(C)NCc1cc2cc3c(cc2n1C)NCCc1c-3[nH]c(=O)c(C(=O)O)c1O.Cl [Cpd 101, 4-hydroxy-10-((isopropylamino)methyl)-9-methyl-2-oxo-1,2,5,6,7,9-hexahydropyrido[2′,3′:4,5]azepino[3,2-f]indole-3-carboxylic acid hydrochloride] | 3.5 to 12.5 | 1 to 3.5 | 12.5 to 150 |
| Cl.O=C(O)c1c(O)c2c([nH]c1=O)-c1ccc(N3CCC4(CNC4)C3)cc1CCC2 [Cpd 121, 4-hydroxy-2-oxo-9-(2,6-diazaspiro[3.4]octan-6-yl)-2,5,6,7-tetrahydro-1H-benzo[6,7]cyclohepta[1,2-b]pyridine-3-carboxylic acid hydrochloride] | 12.5 to 150 | 3.5 to 12.5 | 12.5 to 150 |
| CCC(C)NCc1cc2cc3c(cc2n1C)OCCc1c-3[nH]c(=O)c(C(=O)O)c1O.Cl (stereo not drawn) [Cpd 168, 10-((sec-butylamino)methyl)-4-hydroxy-9-methyl-2-oxo-2,5,6,9-tetrahydro-1H-pyrido[2′,3′:4,5]oxepino[3,2-f]indole-3-carboxylic acid hydrochloride] | < 1 | < 1 | 3.5 to 12.5 |
| CN(C)c1ccc2c(c1)OCCc1c-2[nH]c(=O)c(C(=O)O)c1O [Cpd 76, 9-(dimethylamino)-4-hydroxy-2-oxo-1,2,5,6-tetrahydrobenzo[2,3]oxepino[4,5-b]pyridine-3-carboxylic acid] | 12.5 to 150 (≈ 39.5 to 474 µM) | < 1 | 12.5 to 150 (≈ 39.5 to 474 µM) |
| CN[C@H]1[C@@H]2CN(c3ccc4c(c3)CCCc3c-4[nH]c(=O)c(C(=O)O)c3O)C[C@@H]21 [Cpd 11, 4-hydroxy-9-((cis,cis)-6-(methylamino)-3-azabicyclo[3.1.0]hexan-3-yl)-2-oxo-2,5,6,7-tetrahydro-1H-benzo[6,7]cyclohepta[1,2-b]pyridine-3-carboxylic acid hydrochloride] | 1 to 3.5 | < 1 | 3.5 to 12.5 |
